Assay results taken from US20050063956A1, “Method and device for attracting insects” (Colorado State University Research Foundation, priority 1998, published 2005).
Several values for one entry are separate records, joined by “and”; a condition that tells them apart may be missing. Equal entries are not always repeated. Entries after “also recorded” stand apart in the source; their conditions may differ.

Assays:
[1] = tested on: western corn root worm larvae; experiment: Glass bead Y-tube choice-test bioassay (Example 18); type: in vivo, Diabrotica virgifera virgifera LeConte; settings: for CO2 selective response, choice between two concentrations: base 1, 2, 5, 10, 20 mmol/mol
Description: Bioassay Apparatus. The choice-test bioassay apparatus (FIG. 34) was constructed from a glass Y-tube filled with glass beads to simulate the thigmotactic cues of the soil environment that are ordinarily encountered by western corn root worm larvae. The glass Y-tube was fabricated by a local glassblower (9.5 mm inside diameter, 60° angles, with each branch 3 cm long), and clamped to a ring stand with 2 branches of the “Y” facing down. A glass connection tube (4 cm long, 0.5 cm diameter) with a piece of vinyl screen (2.5-mm mesh) held over 1 end by a 0.5-cm section of Teflon tubing (6 mm inside diameter) was inserted snugly into the end of each of the arms of the Y-tube to support the glass beads. Glass beads (3 mm, cat. no. 11-312A, Fisher Scientific, Pittsburgh, Pa.) were poured into the top of the Y-tube, filling the entire apparatus to within 0.5 cm of the top (250 beads). A 5-mm NMR tube cap (cat. no. 100-0050, Drummond Scientific, Broomall, Pa.) was fitted into the other end of each glass connection tube, with a hole to allow snug insertion of a 20-cm piece of slender Teflon tubing (0.8 mm inside diameter) for introduction of volatile chemical cues into each arm of the bioassay apparatus. Two techniques were used to introduce candidate chemical cues into the 2 arms of the apparatus: 1 used shell vials as chemical sources, and the other used syringes as chemical sources.
Shell Vial Sources. In this 1st approach (FIG. 34), two 35-ml polyethylene syringes (cat. no. 106-0490, Sherwood Medical, St. Louis, Mo.) were filled with ambient air, and the air was pumped through shell vials containing candidate chemical cues. Glass shell vials (4 ml) with polyethylene caps were used (cat. no. B7785-1, Baxter Healthcare, McGaw Park, Ill.). A 35-ml syringe was snugly connected with slender Teflon tubing (20 cm) to a hole in the cap of the shell vial. A 2nd piece of slender Teflon tubing was used to connect the shell vial to 1 arm of the bioassay apparatus. The 2 syringes used for each bioassay were connected to a syringe pump (Sage Model 355, Fisher Scientific, Pittsburgh, Pa.) that provided an airflow through each shell vial containing a candidate chemical treatment, and subsequently into a choice arm of the bioassay apparatus. For the shell vial sources of candidate chemical compounds, the shell vial containing either a carbonated water dilution or a corn seed or cut corn roots was left open for 5 min to allow the gas concentrations to reach equilibrium. The vial was capped, and the syringe pump was started, providing an airflow of 1.0 ml/min from each syringe.
Syringe Sources. In this 2nd approach (FIG. 39), 35-ml polyethylene syringes were filled directly with candidate chemical cues (such as the headspace from a container of germinating corn, a sample of CO2 mixed with air, or the headspace from a bottle of carbonated water). Each of the 2 syringes was connected with slender Teflon tubing to 1 arm of the bioassay apparatus. The 2 syringes used for each bioassay were connected to a syringe pump that was adjusted to provide an airflow of 1 ml/min from each syringe.
Bioassay Procedure. For bioassays, 20 newly hatched 1st instars (0-12 hours old) were collected from tubs containing eggs in soil (by using a camel's hair brush) and placed in a covered 5-mm NMR cap with 2 holes (1 mm diameter) drilled in the bottom (FIGS. 34 and 39). These holes were temporarily plugged with a piece of wire bent into a U-shape. The open end of the NMR cap was sealed with a small square of cellophane held in place with a plastic tube (a piece of soda straw) that fit snugly over the open end. The Y-tube apparatus was assembled and filled with glass beads and the appropriate treatment and control sources (shell vials or syringes) were connected to the arms of the Y-tube. The syringe pump was set to provide a flow of 1 ml/min and turned on. […]

wireworm larvae = settings: in vivo; cited from earlier work

Compound: O=C=O [CO2, carbon dioxide]
- CO2 selective response, equal amounts of CO2 on both sides ([1]; 1, 2, 5, 10, or 20 mmol/mol both sides): no significant differences in attraction were observed
- larval attraction at high CO2 ([1]; 300 or 900 mmol/mol CO2): not attracted
- toxic symptoms of larvae at high CO2 ([1]; 300 or 900 mmol/mol CO2): exhibited toxic symptoms; also recorded: lethargic when removed from the apparatus
- time to recover normal movement ([1]; after removal from apparatus, 300 or 900 mmol/mol CO2): 5 to 10 min
- smallest difference between the 2 choices still attractive ([1]; base 1 mmol/mol): 0.125 mmol/mol
- CO2 selective response, choice between two concentrations ([1]; difference 0.125 mmol/mol): significantly greater attraction was observed to 1.125 mmol/mol than to 1 mmol/mol; also recorded: no difference in attraction was observed in any of the tests at higher concentrations
- CO2 selective response, choice between two concentrations ([1]; difference 0.25 mmol/mol): more attracted to the higher CO2 concentration for 1 versus 1.25 mmol/mol (FIG. 48), and for 2 versus 2.25 mmol/mol; also recorded: no difference in attraction was observed for 5 versus 5.25 mmol/mol (FIG. 50), for 10 versus 10.25 (FIG. 51) mmol/mol, or for 20 versus 20.25 mmol/mol
- CO2 selective response, choice between two concentrations ([1]; difference 0.50 mmol/mol): no difference in attraction was observed for 20 versus 20.50 mmol/mol
- excess of CO2 concentration over control at which larvae were first attracted ([1]; selective response experiments): 12.5%
- highest concentration of CO2 to which the larvae were attracted ([1]; versus ambient air control): 100 mmol/mol and 85.60±1.20 mmol/mol
- lowest concentration of CO2 attractive to the larvae ([1]; versus ambient air control (0.91-0.99 mmol/mol)): 1.125±0.04 mmol/mol
- smallest CO2 difference responded to (wireworm larvae): 0.02%
